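A five-concentration, 48-hour dose response in 96-well plates underlies each endpoint, interpolated linearly between surrounding concentrations. At the GI50, growth is halved.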 The source made the active and inactive calls. Rule as the data show it: active = GI50 up to about 1.1 µM and inactive = higher.
Columns and labels:
Test in all cases: inhibition of tumour cell growth, NCI panel, 48 h
[1] = tested on: DU-145
[2] = tested on: Hs-578T
[3] = tested on: NCI-H23
[4] = tested on: OVCAR-3
[5] = tested on: SK-MEL-2
[6] = tested on: UACC-257
[7] = tested on: CAKI-1
[8] = tested on: HOP-92
[9] = tested on: UO-31
[10] = tested on: NCI/ADR-RES
[11] = tested on: MDA-MB-231
[12] = tested on: U-251
[13] = tested on: SW-620
[14] = tested on: SF-295
[15] = tested on: BT-549
[16] = tested on: NCI-H522
[17] = tested on: HOP-62
[18] = tested on: 786-0
[19] = tested on: HL-60
[20] = tested on: SK-MEL-5
[21] = tested on: LOX IMVI
[22] = tested on: K562
[23] = tested on: T47D
[24] = tested on: M14
[25] = tested on: Malme-3M
[26] = tested on: SN12C
[27] = tested on: PC-3
[28] = tested on: HCT-116
[29] = tested on: MCF7
[30] = tested on: RXF 393
[31] = tested on: SK-OV-3
[32] = tested on: NCI-H226
[33] = tested on: EKVX
[34] = tested on: SNB-19
[35] = tested on: MOLT-4
[36] = tested on: IGROV-1
[37] = tested on: HCC 2998
[38] = tested on: UACC-62
[39] = tested on: MDA-N
[40] = tested on: OVCAR-8
[41] = tested on: SF-268
[42] = tested on: NCI-H460
[43] = tested on: CCRF-CEM
[44] = tested on: SNB-75
[45] = tested on: COLO 205
[46] = tested on: HT-29
[47] = tested on: RPMI-8226
[48] = tested on: SR
[49] = tested on: A549
[50] = tested on: HCT-15
[51] = tested on: OVCAR-5
[52] = tested on: MDA-MB-435
[53] = tested on: A498
[54] = tested on: SF-539
[55] = tested on: KM12
[56] = tested on: TK-10
[57] = tested on: OVCAR-4
[58] = tested on: ACHN
[59] = tested on: SK-MEL-28

How did the GI50 [1] turn out when `Cc1ccc(S(=O)(=O)n2cc(C=O)c(-c3cn(S(=O)(=O)c4ccc(C)cc4)cc3-c3cn(S(=O)(=O)c4ccc(C)cc4)cc3C=O)c2)cc1` was run?
The GI50 was 69.3 µM (inactive).

What about the GI50 [2] of the same compound?
The GI50 was > 100 µM (inactive).

And the GI50 [3]?
Its GI50 is 23.7 µM (inactive).

What about the GI50 [4] of the same compound?
Its GI50 is 78.9 µM (inactive).

And the GI50 [5]?
The GI50 was 33.8 µM (inactive).

And the GI50 [6]?
The GI50 was 54.1 µM (inactive).

What about the GI50 [7] of the same compound?
Its GI50 is > 100 µM (inactive).

What about the GI50 [8] of the same compound?
Its GI50 is 45.4 µM (inactive).

What about the GI50 [9] of the same compound?
Its GI50 is 52.6 µM (inactive).

And the GI50 [10]?
The GI50 was > 100 µM (inactive).

And the GI50 [11]?
The GI50 was > 100 µM (inactive).

What about the GI50 [12] of the same compound?
The GI50 was 29.6 µM (inactive).

And the GI50 [13]?
The GI50 was 45.1 µM (inactive).

What about the GI50 [14] of the same compound?
Its GI50 is 42.9 µM (inactive).

What about the GI50 [15] of the same compound?
The GI50 was 60.1 µM (inactive).

And the GI50 [16]?
The GI50 was 26.9 µM (inactive).

And the GI50 [17]?
The GI50 was > 100 µM (inactive).

And the GI50 [18]?
Its GI50 is 35.8 µM (inactive).

What about the GI50 [19] of the same compound?
Its GI50 is 25.4 µM (inactive).

What about the GI50 [20] of the same compound?
The GI50 was 41.6 µM (inactive).

What about the GI50 [21] of the same compound?
The GI50 was 21.9 µM (inactive).

What about the GI50 [22] of the same compound?
Its GI50 is 24.3 µM (inactive).

And the GI50 [23]?
Its GI50 is 28 µM (inactive).

What about the GI50 [24] of the same compound?
Its GI50 is 29.6 µM (inactive).

What about the GI50 [25] of the same compound?
The GI50 was 24.3 µM (inactive).

And the GI50 [26]?
Its GI50 is > 100 µM (inactive).

And the GI50 [27]?
Its GI50 is 27.5 µM (inactive).

What about the GI50 [28] of the same compound?
The GI50 was 28 µM (inactive).

What about the GI50 [29] of the same compound?
Its GI50 is 27.4 µM (inactive).

What about the GI50 [30] of the same compound?
The GI50 was 29.5 µM (inactive).

And the GI50 [31]?
Its GI50 is > 100 µM (inactive).

And the GI50 [32]?
The GI50 was 29.6 µM (inactive).

And the GI50 [33]?
The GI50 was 16.7 µM (inactive).

And the GI50 [34]?
Its GI50 is 50.2 µM (inactive).

And the GI50 [35]?
Its GI50 is 12.8 µM (inactive).

What about the GI50 [36] of the same compound?
Its GI50 is 53.8 µM (inactive).

What about the GI50 [37] of the same compound?
The GI50 was > 100 µM (inactive).

And the GI50 [38]?
The GI50 was 48.1 µM (inactive).

What about the GI50 [39] of the same compound?
The GI50 was 75.2 µM (inactive).

And the GI50 [40]?
The GI50 was 37.2 µM (inactive).

And the GI50 [41]?
Its GI50 is > 100 µM (inactive).

What about the GI50 [42] of the same compound?
The GI50 was 29.2 µM (inactive).

And the GI50 [43]?
Its GI50 is 17.9 µM (inactive).

And the GI50 [44]?
Its GI50 is 29.6 µM (inactive).

And the GI50 [45]?
The GI50 was 75.2 µM (inactive).

What about the GI50 [46] of the same compound?
The GI50 was 36.2 µM (inactive).

And the GI50 [47]?
Its GI50 is 8.36 µM (inactive).

What about the GI50 [48] of the same compound?
Its GI50 is 13.6 µM (inactive).

And the GI50 [49]?
The GI50 was 72.4 µM (inactive).

And the GI50 [50]?
Its GI50 is 55.7 µM.

What about the GI50 [51] of the same compound?
Its GI50 is 85.3 µM (inactive).

And the GI50 [52]?
Its GI50 is 44.8 µM (inactive).

What about the GI50 [53] of the same compound?
The GI50 was > 100 µM (inactive).

What about the GI50 [54] of the same compound?
The GI50 was 25.9 µM (inactive).

And the GI50 [55]?
The GI50 was 50.7 µM (inactive).

And the GI50 [56]?
The GI50 was 20.9 µM (inactive).

With `O=c1oc2ccccc2c(Nc2ccc3c(c2)Oc2ccccc2O3)c1[N+](=O)[O-]` as the compound, how does the GI50 [1] read?
Its GI50 is 29.6 µM (inactive).

And the GI50 [2]?
Its GI50 is 30.1 µM (inactive).

And the GI50 [3]?
Its GI50 is 20.3 µM (inactive).

What about the GI50 [4] of the same compound?
Its GI50 is 24.6 µM (inactive).

What about the GI50 [5] of the same compound?
The GI50 was 16.9 µM (inactive).

What about the GI50 [6] of the same compound?
Its GI50 is 30.3 µM (inactive).

What about the GI50 [7] of the same compound?
The GI50 was 54.8 µM (inactive).

What about the GI50 [8] of the same compound?
The GI50 was 16.7 µM (inactive).

What about the GI50 [9] of the same compound?
Its GI50 is > 100 µM (inactive).

And the GI50 [10]?
The GI50 was 27.9 µM (inactive).

And the GI50 [11]?
Its GI50 is 17.1 µM (inactive).

What about the GI50 [12] of the same compound?
Its GI50 is 16 µM (inactive).

And the GI50 [13]?
The GI50 was 22.7 µM (inactive).

And the GI50 [14]?
Its GI50 is 18 µM (inactive).

And the GI50 [15]?
The GI50 was 25.6 µM (inactive).

What about the GI50 [16] of the same compound?
Its GI50 is 24.1 µM (inactive).

And the GI50 [17]?
The GI50 was 34.9 µM (inactive).

And the GI50 [57]?
Its GI50 is 23.9 µM (inactive).

What about the GI50 [18] of the same compound?
The GI50 was 18.9 µM (inactive).

And the GI50 [19]?
The GI50 was > 100 µM (inactive).

And the GI50 [20]?
Its GI50 is 20.4 µM (inactive).

What about the GI50 [21] of the same compound?
Its GI50 is 36.9 µM (inactive).

And the GI50 [22]?
The GI50 was 51.8 µM (inactive).

What about the GI50 [23] of the same compound?
Its GI50 is 28.7 µM (inactive).

And the GI50 [24]?
The GI50 was 30.3 µM (inactive).

And the GI50 [25]?
Its GI50 is 23 µM (inactive).

And the GI50 [26]?
The GI50 was 35.8 µM (inactive).

And the GI50 [27]?
Its GI50 is 17.7 µM (inactive).

And the GI50 [28]?
Its GI50 is 31.8 µM (inactive).

And the GI50 [29]?
Its GI50 is 20.3 µM (inactive).

What about the GI50 [30] of the same compound?
Its GI50 is 17.5 µM (inactive).

And the GI50 [31]?
The GI50 was 19.1 µM (inactive).

And the GI50 [32]?
The GI50 was 23.1 µM (inactive).

And the GI50 [33]?
Its GI50 is 21.7 µM (inactive).

And the GI50 [34]?
The GI50 was 17.5 µM (inactive).

What about the GI50 [35] of the same compound?
Its GI50 is 43 µM (inactive).

And the GI50 [36]?
Its GI50 is 19 µM (inactive).

What about the GI50 [37] of the same compound?
Its GI50 is 28.1 µM (inactive).

And the GI50 [38]?
Its GI50 is 17.7 µM (inactive).

And the GI50 [39]?
The GI50 was 49.8 µM (inactive).

What about the GI50 [40] of the same compound?
Its GI50 is 18.8 µM (inactive).

And the GI50 [41]?
The GI50 was 23.7 µM (inactive).

And the GI50 [42]?
The GI50 was 42.2 µM (inactive).

What about the GI50 [58] of the same compound?
Its GI50 is 16.3 µM (inactive).

And the GI50 [43]?
The GI50 was 40.3 µM (inactive).

What about the GI50 [44] of the same compound?
The GI50 was 14.7 µM (inactive).

What about the GI50 [45] of the same compound?
Its GI50 is > 100 µM (inactive).

And the GI50 [46]?
Its GI50 is 65.2 µM (inactive).

What about the GI50 [47] of the same compound?
Its GI50 is 59.6 µM (inactive).

And the GI50 [48]?
The GI50 was 38.3 µM (inactive).

What about the GI50 [49] of the same compound?
The GI50 was 32.4 µM (inactive).

And the GI50 [50]?
Its GI50 is 44.1 µM.

And the GI50 [51]?
Its GI50 is 35.6 µM (inactive).

And the GI50 [52]?
The GI50 was 54.3 µM (inactive).

And the GI50 [53]?
Its GI50 is 27 µM (inactive).

What about the GI50 [54] of the same compound?
Its GI50 is 19.2 µM (inactive).

What about the GI50 [55] of the same compound?
Its GI50 is 59.2 µM (inactive).

And the GI50 [59]?
Its GI50 is 21.2 µM (inactive).

What about the GI50 [56] of the same compound?
The GI50 was 21.2 µM (inactive).
